Broadly, the IC50 is the midpoint of a concentration-inhibition curve.

Values after ≈ are worked out from the molar mass of the structure shown. Inconclusive results are not listed. Active and inactive are the calls of the source. No rule for the calls is given here.

The subject of this assay is M. tuberculosis H37Rv growth inhibition. Briefly: Mycobacterium tuberculosis H37Rv growth inhibition, cell based, confirmatory dose response (AID 1949).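 Also: bacteria grown 7 days with compound before Alamar blue readout.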
With `CCOC(=O)COc1ccc2c(=O)c(-c3ccccc3F)coc2c1C`, the IC50 was below 0.1 µg/mL. The result for `CC1CCN(C(=S)NC(=O)c2ccc(Cl)cc2)CC1` reads 0.35 µg/mL (≈ 1.18 µM); that for `N#Cc1ccc(NC(=O)Nc2cccc(Cl)c2)cc1`, 4.6 µg/mL (≈ 16.9 µM). On to `COc1ccc(N/C(N)=N/c2nc(-c3cccs3)cc(C(F)(F)F)n2)cc1`, for which the IC50 was > 50 µg/mL (inactive). As to `COc1ccc(-c2c(C)oc3cc(OCC(=O)OC(C)C)ccc3c2=O)cc1OC`, the IC50 was 1.36 µg/mL (≈ 3.3 µM). In the case of `CCOC(=O)C1CCCN(c2ncnc3c2cnn3-c2ccc(Cl)cc2)C1` (stereo not given), the IC50 is 4.21 µg/mL (≈ 10.9 µM). `Cc1ccc(CSCC(=O)Nc2ccccc2)cc1`: the concentration for half-maximal inhibition (IC50) is 2.88 µg/mL (≈ 10.6 µM). The result for `CCS(=O)(=O)c1nnnn1-c1ccccc1F` reads > 50 µg/mL (inactive); that for `CN(C)S(=O)(=O)c1ccc(NC(=S)NC(=O)CCCOc2ccc(Cl)cc2Cl)cc1`, 5.38 µg/mL (≈ 11 µM); that for `CC(NS(=O)(=O)c1cccc(Cl)c1)C(=O)Nc1ccc(Br)cc1F` (stereo not given), 3 µg/mL (≈ 6.89 µM).

Consider `CCOC(=O)N1CCN(CCC(=O)c2ccc(Cl)cc2)CC1`, for which the half-inhibitory concentration (IC50) was 2.45 µg/mL (≈ 7.54 µM).

On to `CCOC(=O)c1c(NC(=O)CNC(C)CC)sc2c1CCCC2` (stereo not given), for which the IC50 is 17.4 µg/mL (≈ 51.4 µM).

Take `CCC(C)Oc1c(Cl)cc(/C=C\[N+](=O)[O-])cc1OC` (stereo not given): the IC50 is > 50 µg/mL (inactive). The result for `CCc1ccc(S(=O)(=O)Nc2ccc(I)cc2)cc1` reads 11.7 µg/mL (≈ 30.1 µM); that for `CCCC(=O)N1CCN(c2ccc(NC(=O)c3cc4ccccc4o3)cc2Cl)CC1`, 33.7 µg/mL (≈ 79.1 µM). As to `Cc1ccc(OCC(=O)c2ccc(Br)cc2)cc1C`, the IC50 was 47.7 µg/mL (≈ 149 µM). As for `CCOc1cc(CNC(C)C23CC4CC(CC(C4)C2)C3)cc(Cl)c1OCC(=O)NC(C)(C)C` (stereo not given), the figure is 3.06 µg/mL (≈ 6.41 µM); as for `CCOC(=O)COc1ccc2c(=O)c(Oc3cccc(OC)c3)coc2c1`, 27.2 µg/mL (≈ 73.4 µM); as for `CCCn1nnnc1NC(=O)c1cccs1`, 1.67 µg/mL (≈ 7.04 µM). As for `Nc1ncnc2c1[nH]c(=S)n2CCOc1cccc2ccccc12`, the figure is 10.9 µg/mL (≈ 32.5 µM); as for `CC(=O)Oc1ccccc1C(=O)Nc1ccc(Br)cc1Cl`, 4.23 µg/mL (≈ 11.5 µM).

As for `Cc1ccc([N+](=O)[O-])cc1S(=O)(=O)Nc1cc(Br)c(O)c2ccccc12`, the IC50 was 11 µg/mL (≈ 25.1 µM). The result for `Cc1ccc(-c2nnc(SCC(=O)Nc3ccc([N+](=O)[O-])cc3)o2)cc1` reads > 50 µg/mL (inactive); that for `O=[N+]([O-])c1c(-n2cccn2)nn(-c2ccccc2)c1C(Cl)Cl`, 3.09 µg/mL (≈ 9.14 µM); that for `Fc1ccccc1C1NC(=S)NC2=C1CCc1ccccc12` (stereo not given), 9.36 µg/mL (≈ 30.2 µM). As for `CCn1cc(C(=O)O)c(=O)c2cc(F)c(N3CCN(C(=S)Nc4ccc(Cl)cc4)CC3)cc21`, the figure is 24.1 µg/mL (≈ 49.3 µM); as for `O=C(/C=C\c1ccccc1)Nc1cccc(-c2nc3ccccc3[nH]2)c1`, 7.66 µg/mL (≈ 22.6 µM); as for `Cc1ccc(SCC(=O)Nc2cccc(F)c2)cc1`, 5.34 µg/mL (≈ 19.4 µM). For the compound `O=c1c2ccccc2nc(CSc2ncnc3ccccc23)n1-c1ccc(Cl)c(Cl)c1`, the IC50 is > 50 µg/mL (inactive). As for `COCCNS(=O)(=O)c1ccc(-c2ccc(C)cc2)cc1`, the figure is 0.49 µg/mL (≈ 1.6 µM); as for `COC(=O)COc1ccc2c(-c3ccc(OC)cc3)cc(=O)oc2c1`, 0.86 µg/mL (≈ 2.53 µM); as for `CCN(c1ccccc1)c1ccc([N+](=O)[O-])c2nonc12`, 0.17 µg/mL (≈ 0.598 µM). The result for `Cc1cc(C(=O)Oc2ccc(Cc3ccccc3)cc2)ccc1[N+](=O)[O-]` reads 2.23 µg/mL (≈ 6.42 µM); that for `COC(=O)CSc1nnc(NC(=O)c2ccc(C(C)(C)C)cc2)s1`, below 0.1 µg/mL; that for `Cc1ccc(Cl)cc1N1CCN(CC(O)COc2ccc(C(=O)c3ccccc3)cc2)CC1` (stereo not given), 2.94 µg/mL (≈ 6.32 µM). The result for `O=C(Nc1ccc(N2CCN(Cc3ccccc3)CC2)cc1)c1cccc(Cl)c1Cl` reads 4.51 µg/mL (≈ 10.2 µM); that for `COc1ccccc1Nc1nc(NCc2ccccc2)c2ccccc2n1`, 3.21 µg/mL (≈ 9.01 µM). With `O=C(CCC(=O)OCc1cccc(C(=O)Oc2ccccc2)c1)Nc1cccc2ccccc12`, the IC50 is 12.6 µg/mL (≈ 27.8 µM). The result for `Cc1cc(N2CCCC2)c(C)cc1/C=C\[N+](=O)[O-]` reads > 50 µg/mL (inactive); that for `Cc1ccc(Cl)cc1N1CCN(CC(O)COC2CC(C)CC(C)(C)C2)CC1` (stereo not given), 7.82 µg/mL (≈ 19.1 µM). `COc1ccccc1C1=Nc2cccc3cccc(c23)N1`: the IC50 was 0.24 µg/mL (≈ 0.875 µM). Take `Cc1cc2ncn(CC(O)COc3ccc(C(C)C)cc3)c2cc1C` (stereo not given): the IC50 was 5.42 µg/mL (≈ 16 µM). As for `Cc1ccc(Cl)cc1N1CCN(CC(O)COCC2COc3ccccc3O2)CC1` (stereo not given), the figure is 5.17 µg/mL (≈ 11.9 µM); as for `COc1cc([N+](=O)[O-])ccc1NC(=S)Nc1ccc(OC(F)F)c(Cl)c1`, 3.41 µg/mL (≈ 8.44 µM); as for `Clc1ccc(OCc2ccccc2Cl)c(CNCc2ccccc2)c1`, 5.09 µg/mL (≈ 13.7 µM).

For `CCOc1cc(CNCc2ccccc2OCc2ccccc2)cc(Cl)c1OCC`, the half-inhibitory concentration (IC50) is 1.94 µg/mL (≈ 4.55 µM).

As for `Cc1nc2c(-c3ccc(Cl)cc3)cnn2c(N)c1-c1ccccc1`, the IC50 was 0.84 µg/mL (≈ 2.51 µM).

In the case of `Cc1ccc(Cl)c(OCC(O)Cn2cnc3cc(C)c(C)cc32)c1` (stereo not given), the IC50 was 8.12 µg/mL (≈ 23.5 µM). The result for `CCN(c1ccccc1)S(=O)(=O)c1ccc(NC(=O)Nc2ccc(Cl)cc2)cc1` reads 5.77 µg/mL (≈ 13.4 µM); that for `CCOc1ccc(C(=O)Nc2ccc(N3CCN(C(=O)c4cccs4)CC3)c(Cl)c2)cc1Br`, 0.53 µg/mL (≈ 0.966 µM). As for `O=[N+]([O-])c1ccc(N2CCN(C(=S)NCc3ccc(Cl)cc3)CC2)cc1`, the figure is 2.58 µg/mL (≈ 6.6 µM); as for `CC(C)(C)NC(=O)c1cc2cc(Cl)cc(Cl)c2oc1=O`, 2.54 µg/mL (≈ 8.08 µM); as for `Cc1ccc(-c2nc(Nc3ccc(O)cc3)c3ccccc3n2)cc1`, 2.14 µg/mL (≈ 6.54 µM). The result for `NC(=O)c1c(NC(=O)c2cc3ccccc3oc2=O)sc2c1CCCCCC2` reads 1.03 µg/mL (≈ 2.6 µM).

Take `CCOC(=O)/C(C#N)=C/c1ccc(-c2ccc(F)cc2)o1`: the IC50 was 0.25 µg/mL (≈ 0.876 µM).

For `O=[N+]([O-])c1nn(-c2ccccc2)[n+]([O-])c1N1CCCC1`, the IC50 is 11.9 µg/mL (≈ 43.1 µM). The result for `COc1ccc(OC)c(NC(=O)Nc2ccc(Cl)c(C(F)(F)F)c2)c1` reads 1.72 µg/mL (≈ 4.59 µM); that for `CC(=O)OCC#CCSc1nnc(-c2ccc(Br)cc2)o1`, below 0.1 µg/mL.

With `O=c1c2c(-c3ccc(Cl)cc3)csc2nc2c3ccccc3c(NCCN3CCOCC3)nn12`, the half-maximal inhibitory concentration (IC50) is 11.2 µg/mL (≈ 22.8 µM). The result for `COc1cccc(NC(=S)NC(=O)CC(C)(C)C)c1` reads 13.4 µg/mL (≈ 47.9 µM); that for `COc1ccc(Cl)cc1CN1CCN(c2ncnc3scc(-c4ccccc4)c23)CC1`, 4.15 µg/mL (≈ 9.2 µM). The result for `N#Cc1ccc(NC(=O)Nc2ccc(Cl)cc2)cc1` reads 0.51 µg/mL (≈ 1.88 µM); that for `Oc1ccccc1-c1n[nH]c(/C=C/c2ccc(Br)cc2)n1`, 3.27 µg/mL (≈ 9.56 µM); that for `COc1cc(Br)cc2cc(C(=O)Nc3cc(C(F)(F)F)ccc3Cl)c(=O)oc12`, > 50 µg/mL (inactive). As for `COc1ccc(CCNC(=S)NC23CC4CC(CC(C4)C2)C3)cc1`, the figure is 7.85 µg/mL (≈ 22.8 µM); as for `O=S1(=O)C=CC2ON=C(c3ccc(Cl)cc3)C21` (stereo not given), 1.11 µg/mL (≈ 4.12 µM); as for `CC(C)(C)c1ccc(C(=O)Nc2ccc(S(=O)(=O)Nc3nccs3)cc2)cc1Br`, 1.19 µg/mL (≈ 2.41 µM). Consider `CN1CCC(O)(c2cccs2)C(C(=O)c2cccs2)C1` (stereo not given), for which the concentration for half-maximal inhibition (IC50) was 1.54 µg/mL (≈ 5.01 µM). As to `O=C(CSc1nnc(-c2cccnc2)o1)c1ccc(Oc2ccccc2)cc1`, the IC50 was > 50 µg/mL (inactive). As for `CCN(CC)CCn1c(=N)n(CC(O)COc2ccc(Cl)cc2Cl)c2ccccc21` (stereo not given), the half-maximal inhibitory concentration (IC50) was 1.38 µg/mL (≈ 3.06 µM).

For the compound `Cc1ccc(C)c(OCC(=O)Nc2ccc(C(=O)OC(C)C)cc2)c1C`, the IC50 is 3.77 µg/mL (≈ 10.6 µM). Take `CSc1ccccc1NC(=O)c1ccc(Cl)s1`: the IC50 was 5.6 µg/mL (≈ 19.7 µM). In the case of `Cn1c(Sc2ccc([N+](=O)[O-])c3cccnc23)nnc1-c1ccccc1`, the IC50 is 0.8 µg/mL (≈ 2.2 µM). As for `CCC(C)NCCCCOc1ccc(Cl)cc1C(C)(C)C` (stereo not given), the figure is 4.49 µg/mL (≈ 14.4 µM); as for `Nc1nc2ccccc2n1CCOc1cccc2ccccc12`, 4.95 µg/mL (≈ 16.3 µM); as for `CCc1ccc(C2C3=C(CC(C)(C)CC3=O)NC3=C2C(=O)c2ccccc23)cc1` (stereo not given), 4.44 µg/mL (≈ 11.6 µM). As for `O=C1C(=O)N(CCc2ccccc2)c2ccc(Cl)cc21`, the figure is 4.73 µg/mL (≈ 16.6 µM). The result for `O=C1NN=C2C1=NC1(CCCCC1)Cc1ccccc12` reads 0.1 µg/mL (≈ 0.374 µM); that for `O=C(Nc1cccc2ncccc12)c1ccc([N+](=O)[O-])o1`, 4.28 µg/mL (≈ 15.1 µM). Regarding `Cc1ccc(OCC(=O)c2ccc(C)cc2)cc1`, the half-maximal inhibitory concentration (IC50) is 50 µg/mL (≈ 208 µM).

Regarding `Cc1cccc(C(C)(C)C)c1OCCOCCn1ccnc1`, the 50% inhibitory concentration (IC50) was 3.97 µg/mL (≈ 13.1 µM). As for `O=C1NC(=O)N(c2ccc(Cl)cc2)C(=O)/C1=C\c1ccc([N+](=O)[O-])s1`, the figure is 5.58 µg/mL (≈ 14.8 µM); as for `O=C(OCc1ccccc1Cl)C1(O)c2ccccc2-c2ccccc21`, 2.76 µg/mL (≈ 7.87 µM); as for `CCC(OC(C)=O)c1ccc(OC(C)=O)c(OC)c1` (stereo not given), 1.43 µg/mL (≈ 5.37 µM). As to `COc1ccc(-c2oc3ncn(CCCn4ccnc4)c(=N)c3c2-c2ccc(OC)cc2)cc1`, the IC50 was 3.79 µg/mL (≈ 8.32 µM). As for `CCc1cc2c(=O)c(Oc3ccc(-c4ccccc4)cc3)coc2cc1OC(C)=O`, the figure is 5.89 µg/mL (≈ 14.7 µM); as for `Cc1ccc(C(C)C)cc1OCCCCn1ccnc1`, 1.88 µg/mL (≈ 6.9 µM). As for `CCOC(=O)COc1ccc2c(=O)c(Oc3ccc(F)cc3)c(C)oc2c1`, the concentration for half-maximal inhibition (IC50) is 1.51 µg/mL (≈ 4.06 µM).

As for `CC(=O)c1cccc(Nc2cc(C)nc3c2ccc2ccccc23)c1`, the IC50 is 3.1 µg/mL (≈ 9.5 µM). The result for `Cc1ccc(CNC(=O)c2ccc(C)cc2Cl)cc1` reads > 50 µg/mL (inactive); that for `CCOC(=O)CCc1c(C)c(C#N)c2[nH]c3ccccc3n2c1=O`, below 0.1 µg/mL; that for `S=C(NCCc1ccc(Cl)cc1)Nc1ccc(Nc2ccccc2)cc1`, 2.09 µg/mL (≈ 5.47 µM). As for `COc1ccc(F)cc1CN1CCN(c2ncnc3scc(-c4ccc(F)cc4)c23)CC1`, the figure is > 50 µg/mL (inactive); as for `CC(=O)c1cccc(-n2nnnc2S(C)(=O)=O)c1`, 2.75 µg/mL (≈ 10.3 µM); as for `CCOC(=O)COc1ccc(C(=O)Nc2cccc(Cl)c2C)cc1`, below 0.1 µg/mL. The result for `O=C(Nc1ccn(Cc2ccc(Cl)cc2)n1)c1ccc2c(c1)OCO2` reads 2.43 µg/mL (≈ 6.83 µM); that for `COc1cccc(C(=O)NC(=S)Nc2ccc(N3CCN(C(=O)c4cccs4)CC3)c(Cl)c2)c1`, 0.76 µg/mL (≈ 1.48 µM). On to `CCn1c(-c2ccco2)nc2ccccc21`, for which the IC50 was 2.39 µg/mL (≈ 11.3 µM). The result for `O=C(Nc1cccc([N+](=O)[O-])c1)N1CCN(Cc2ccc(Cl)cc2Cl)CC1` reads 5.06 µg/mL (≈ 12.4 µM); that for `OC(COc1ccccc1Cl)CN1CCN(C(c2ccccc2)c2ccccc2)CC1` (stereo not given), 2.51 µg/mL (≈ 5.74 µM).

Values taken from PubChem BioAssay AID1949 (Southern Research Institute, 2009).
